Assay results from patent publication US7670613B2, “Androgen modulators” (Pfizer Inc., priority 2004, dated 2010).
Like-named read-outs stand apart in the source and are kept apart here.

Target: T1, androgen receptor (Homo sapiens, UniProt P10275, Q868H)
T1 construct: a human breast tumor cell line expressing androgen receptor; endogenous in cells; host or cells: MDA-MB453-MMTV clone 54-19 (only the MMTV-luciferase reporter was transfected)
T1 sequence (P10275 1-920 Q868H): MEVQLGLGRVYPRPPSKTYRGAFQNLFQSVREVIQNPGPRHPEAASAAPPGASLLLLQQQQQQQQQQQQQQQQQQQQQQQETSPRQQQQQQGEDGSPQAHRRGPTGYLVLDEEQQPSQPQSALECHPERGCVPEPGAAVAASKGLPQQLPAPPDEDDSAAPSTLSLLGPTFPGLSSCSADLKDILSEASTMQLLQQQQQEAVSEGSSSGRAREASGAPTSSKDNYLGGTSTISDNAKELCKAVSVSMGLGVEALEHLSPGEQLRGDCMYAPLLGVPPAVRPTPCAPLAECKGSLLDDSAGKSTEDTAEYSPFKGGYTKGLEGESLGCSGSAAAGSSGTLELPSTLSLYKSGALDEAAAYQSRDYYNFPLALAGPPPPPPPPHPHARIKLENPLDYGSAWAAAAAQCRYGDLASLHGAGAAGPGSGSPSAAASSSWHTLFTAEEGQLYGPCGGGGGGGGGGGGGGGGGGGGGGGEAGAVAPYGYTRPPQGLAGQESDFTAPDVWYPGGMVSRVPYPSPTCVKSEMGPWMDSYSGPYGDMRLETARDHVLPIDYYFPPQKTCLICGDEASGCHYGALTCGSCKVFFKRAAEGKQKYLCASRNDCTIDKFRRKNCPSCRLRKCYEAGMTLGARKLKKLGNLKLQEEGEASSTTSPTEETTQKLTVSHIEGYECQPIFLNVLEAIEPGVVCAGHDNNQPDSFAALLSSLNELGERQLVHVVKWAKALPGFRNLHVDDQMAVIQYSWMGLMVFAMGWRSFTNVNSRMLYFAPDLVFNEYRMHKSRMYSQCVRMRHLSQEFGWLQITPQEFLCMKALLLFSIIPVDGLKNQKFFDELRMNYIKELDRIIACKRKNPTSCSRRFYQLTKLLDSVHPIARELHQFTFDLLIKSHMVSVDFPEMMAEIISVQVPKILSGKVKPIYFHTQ
Experiment: AR antagonist cell assay (MDA-MB453-MMTV clone 54-19, luciferase reporter)
Type: cell-based
Conditions: 100 pM DHT, 17 hr, mean of multiple tests
Experimental: The compounds ability to antagonize the effects of androgen on the androgen receptor were determined in a whole cell assay as described immediately below.
Experimental Procedure for AR Antagonist Cell Assay
This cell line is a stable transfected cell line with MDA-MB453 cell background (a human breast tumor cell line expressing androgen receptor). A MMTV minimal promoter containing ARE was first cloned in front of a firefly luciferase reporter gene. Then the cascade was cloned into transfection vector pUV120puro. Electroporation method was used for transfecting MDA-MB-453 cell. Puromycin resistant stable cell line was selected.
Cell Culture Media and Reagents:
Culture medium: DMEM (high glucose, Gibco cat #: 11960-044), 10% FBS, and 1% L-glutamine
Plating medium: DMEM (phenol red free), 10% charcoal treated HyClone serum, 1% L-glutamine
Assay medium: DMEM (phenol red free), 1% charcoal treated HyClone serum, 1% L-glutamine, and 1% penicillin/streptomycin
3× luciferase buffer: 2% beta-mercaptoethanol, 0.6% ATP, 0.0135% luciferine in cell lysis buffer
• 1. Cells are maintained in culture medium, splitting cells when they reach 80-90% confluence • 2. To test compounds, 10,000 cells/well are plated to opaque 96 cell culture plate in 100 ul/well plating medium, culture for overnight at 37° C. in cell culture incubator • 3. Carefully remove plating medium, then add 80 ul/well of pre-warmed assay medium, add 10 ul/well testing compound (final concentration at) 1000 nM, 200 nM, 40 nM, 8 nM, 1.6 nM, and 0.32 nM), incubate at 37° C. for 30 minutes • 4. Add 10 ul/well freshly prepared DHT (final concentration at 100 pM) to each well, incubate at 37° C. for 17 hr (overnight) • 5.
The results are reported as the mean of multiple tests as described below (the numbers of tests are indicated in the footnote). N.D. denotes that the compound was not tested.

[1] = AR Cell IC50, MDA-MB453-MMTV clone 54-19 cells

| SMILES | IC50 [1] | IC50 (MDA-MB453-MMTV clone 54-19 cells, read-out: AR Cell IC50) |
| --- | --- | --- |
| N#Cc1ccc(O[C@@H]2CCCC[C@H]2C#N)cc1C(F)(F)F (single isomer, unassigned) [Example 72, (trans)-(−)-4-(2-Cyano-cyclohexyloxy)-2-trifluoromethyl-benzonitrile] | 12 nM | – |
| N#Cc1ccc(O[C@@H]2CCCCC2C#N)cc1C(F)(F)F (stereo in doubt) [Example 14, -4-(2-Cyano-cyclohexyloxy)-2-trifluoromethyl-benzonitrile] | 13 nM | – |
| CC1CCCCC1Oc1ccc(C#N)c(C(F)(F)F)c1 (stereo not drawn) [Example 8, 4-(2-Methyl-cyclohexyloxy)-2-trifluoromethyl-benzonitrile] | – | 494 nM |
